Assay results: patent publication US10696655B2, “Therapeutic compounds and uses thereof” (GENENTECH, INC., priority 2017, dated 2020)

Legend:
[1] = tested on: MYC; assay: MYC RPL19 QuantiGene assay in MV-4-11 cells; assay type: cell-based; details: Homo sapiens, MV4-11, compound 4 hours
Excerpt: MYC RPL19 QuantiGene assay in MV-4-11 Cells

[2] = biological target: CBP (Homo sapiens (Human), UniProt Q92793); assay: CBP TR-FRET binding assay; details: His/Flag tagged CBP 4 nM, biotin-ligand 60 nM; read-out: CBP HTRF IC50;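 also: displacement of a biotinylated small-molecule ligand from purified recombinant CBP read by TR-FRET, DMSO-only wells as control, IC50 from nonlinear curve fit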
CBP, sequence (Q92793 whole entry): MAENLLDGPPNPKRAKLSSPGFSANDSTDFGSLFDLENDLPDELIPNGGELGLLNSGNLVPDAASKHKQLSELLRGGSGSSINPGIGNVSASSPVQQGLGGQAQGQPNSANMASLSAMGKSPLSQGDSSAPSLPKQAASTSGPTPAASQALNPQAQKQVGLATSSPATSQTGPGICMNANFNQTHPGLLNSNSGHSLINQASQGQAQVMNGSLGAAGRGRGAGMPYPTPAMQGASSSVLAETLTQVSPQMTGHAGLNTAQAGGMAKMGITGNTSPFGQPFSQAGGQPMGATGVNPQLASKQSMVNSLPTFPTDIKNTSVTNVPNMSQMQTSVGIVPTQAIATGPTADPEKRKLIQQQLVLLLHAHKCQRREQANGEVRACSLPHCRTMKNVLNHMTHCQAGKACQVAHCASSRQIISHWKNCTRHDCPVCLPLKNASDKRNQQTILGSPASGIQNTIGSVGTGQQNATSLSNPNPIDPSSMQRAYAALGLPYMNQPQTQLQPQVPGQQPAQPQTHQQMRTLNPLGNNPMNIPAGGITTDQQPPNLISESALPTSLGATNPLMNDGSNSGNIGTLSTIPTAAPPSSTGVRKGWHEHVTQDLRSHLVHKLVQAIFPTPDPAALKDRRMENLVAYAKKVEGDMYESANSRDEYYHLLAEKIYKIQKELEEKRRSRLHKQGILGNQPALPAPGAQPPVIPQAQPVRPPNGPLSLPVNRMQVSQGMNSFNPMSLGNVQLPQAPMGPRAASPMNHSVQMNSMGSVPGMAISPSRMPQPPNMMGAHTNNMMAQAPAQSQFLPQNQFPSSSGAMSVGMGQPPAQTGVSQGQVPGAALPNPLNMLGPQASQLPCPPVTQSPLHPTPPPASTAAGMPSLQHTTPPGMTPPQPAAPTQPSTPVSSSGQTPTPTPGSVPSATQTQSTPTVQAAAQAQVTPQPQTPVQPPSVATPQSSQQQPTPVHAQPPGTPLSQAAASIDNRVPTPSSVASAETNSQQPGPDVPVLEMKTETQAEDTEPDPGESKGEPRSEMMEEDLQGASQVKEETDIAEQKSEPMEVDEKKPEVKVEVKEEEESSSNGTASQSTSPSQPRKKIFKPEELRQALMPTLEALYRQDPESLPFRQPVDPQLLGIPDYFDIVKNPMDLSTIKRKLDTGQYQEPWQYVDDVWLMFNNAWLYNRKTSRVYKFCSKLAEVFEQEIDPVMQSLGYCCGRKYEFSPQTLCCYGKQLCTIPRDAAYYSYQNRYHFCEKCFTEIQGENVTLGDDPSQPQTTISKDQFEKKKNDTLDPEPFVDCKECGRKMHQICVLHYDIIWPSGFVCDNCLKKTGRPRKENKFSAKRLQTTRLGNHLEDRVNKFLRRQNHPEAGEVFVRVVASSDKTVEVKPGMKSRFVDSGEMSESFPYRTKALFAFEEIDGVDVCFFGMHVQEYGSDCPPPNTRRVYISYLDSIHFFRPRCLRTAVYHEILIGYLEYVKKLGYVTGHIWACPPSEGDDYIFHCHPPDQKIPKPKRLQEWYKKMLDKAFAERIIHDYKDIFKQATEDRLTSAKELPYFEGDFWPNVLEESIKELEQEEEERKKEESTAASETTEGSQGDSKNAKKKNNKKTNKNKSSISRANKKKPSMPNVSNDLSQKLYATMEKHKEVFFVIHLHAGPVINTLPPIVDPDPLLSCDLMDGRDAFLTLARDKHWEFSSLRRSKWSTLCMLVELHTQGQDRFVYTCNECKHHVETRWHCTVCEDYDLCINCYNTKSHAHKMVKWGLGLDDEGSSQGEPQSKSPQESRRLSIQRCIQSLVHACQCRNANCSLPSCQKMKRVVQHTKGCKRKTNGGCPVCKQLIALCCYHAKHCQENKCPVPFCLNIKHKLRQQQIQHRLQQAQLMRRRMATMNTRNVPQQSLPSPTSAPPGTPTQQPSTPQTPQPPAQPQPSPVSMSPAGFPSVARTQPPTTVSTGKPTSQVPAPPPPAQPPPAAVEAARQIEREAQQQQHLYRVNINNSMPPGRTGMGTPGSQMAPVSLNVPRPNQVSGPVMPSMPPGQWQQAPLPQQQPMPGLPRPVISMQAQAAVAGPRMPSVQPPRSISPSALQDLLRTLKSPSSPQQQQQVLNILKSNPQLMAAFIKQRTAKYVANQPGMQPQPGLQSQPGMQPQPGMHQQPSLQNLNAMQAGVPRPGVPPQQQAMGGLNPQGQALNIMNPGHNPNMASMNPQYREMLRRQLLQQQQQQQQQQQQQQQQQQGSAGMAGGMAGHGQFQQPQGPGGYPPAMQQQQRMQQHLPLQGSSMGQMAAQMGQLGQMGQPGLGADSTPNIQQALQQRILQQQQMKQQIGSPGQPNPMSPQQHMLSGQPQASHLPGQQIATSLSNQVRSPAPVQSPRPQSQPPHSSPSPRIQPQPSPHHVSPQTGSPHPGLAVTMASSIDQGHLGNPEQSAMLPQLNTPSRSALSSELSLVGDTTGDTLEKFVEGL

| Compound | IC50 [1] [nM] | IC50 [2] [nM] |
| --- | --- | --- |
| Cc1c(N2CCCc3cc(-c4cnn(C)c4)c(C(F)F)cc32)ccc2c1n(C)c(=O)n2C [Example 40] | 1940 | 72 |
| Cn1cc(-c2cc3c(cc2C(F)F)N(c2cc(C4CCOCC4)c4c(c2)n(C)c(=O)n4C)CCC3)cn1 [Example 97, 6-(7-(difluoromethyl)-6-(1-methyl-1H-pyrazol-4-yl)-3,4-dihydroquinolin-1(2H)-yl)-1,3-dimethyl-4-(tetrahydro-2H-pyran-4-yl)-1H-benzo[d]imidazol-2(3H)-one] | 58 | 4 |
| CNC(=O)c1cn(C)c2cc(C)c(N3CCCc4cc(-c5cnn(C)c5)c(C(F)F)cc43)cc12 [Example 57] | 302 | 9 |
| CNC(=O)c1c[nH]c2ncc(N3CCCc4cc(-c5cnn(C)c5)c(C(F)F)cc43)nc12 [Example 69] | 47 | 4 |
| Cn1cc(-c2cc3c(cc2C(F)F)N(c2cc4c(cc2F)n(C)c(=O)n4C)CCC3)cn1 [Example 35] | 428 | 23 |
| CNC(=O)Nc1cc(OC)cc(N2CCCc3cc(-c4cnn(C)c4)c(C(F)F)cc32)n1 [Example 123, 1-(6-(7-(difluoromethyl)-6-(1-methyl-1H-pyrazol-4-yl)-3,4-dihydroquinolin-1(2H)-yl)-4-methoxypyridin-2-yl)-3-methylurea] | 3380 | 115 |
| CCc1cc2c(cc1N1CCCc3cc(-c4cnn(C)c4)c(C(F)F)cc31)n(C)c(=O)n2C [Example 47] | 1110 | 39 |
| C=C(C)c1cc(N2CCCc3cc(-c4cnn(C)c4)c(C(F)F)cc32)cc2c(C(=O)NC)cn(C)c12 [Example 107, 5-(7-(difluoromethyl)-6-(1-methyl-1H-pyrazol-4-yl)-3,4-dihydroquinolin-1(2H)-yl)-N,1-dimethyl-7-(prop-1-en-2-yl)-1H-indole-3-carboxamide] | 147 | 16 |
| CCC(=O)N1CCOc2ccc(N3CCCc4cc(-c5cnn(C)c5)c(C(F)F)cc43)cc2C1 [Example 78, 1-(7-(7-(difluoromethyl)-6-(1-methyl-1H-pyrazol-4-yl)-3,4-dihydroquinolin-1(2H)-yl)-2,3-dihydrobenzo[f][1,4]oxazepin-4(5H)-yl)propan-1-one] | 780 | 22 |
| CN1C(=O)Cc2ccc(N3CCCc4cc(-c5cnn(C)c5)c(C(F)F)cc43)cc21 [Example 90, 6-[7-(difluoromethyl)-6-(1-methylpyrazol-4-yl)-3,4-dihydro-2H-quinolin-1-yl]-1-methyl-indolin-2-one] | 96 | 32 |
| CN(C)c1cc(N2CCCc3cc(-c4cnn(C)c4)c(C(F)F)cc32)cc2c1n(C)c(=O)n2C [Example 41, 6-(7-(difluoromethyl)-6-(1-methyl-1H-pyrazol-4-yl)-3,4-dihydroquinolin-1(2H)-yl)-4-(dimethylamino)-1,3-dimethyl-1H-benzo[d]imidazol-2(3H)-one] | 136 | 5 |
| CCc1cc(N2CCCc3cc(-c4cnn(C)c4)c(C(F)F)cc32)cc2c1n(C)c(=O)n2C [Example 37] | 281 | 11 |
| CNC(=O)c1cn(C)c2c(C)cc(N3CCCc4cc(-c5cnn(C)c5)c(C(F)F)cc43)nc12 [Example 60] | 108 | 9 |
| CNC(=O)c1cn(C)c2c(C)cc(N3CCCc4cc(-c5cnn(C)c5)c(C(F)F)cc43)cc12 [Example 104, 5-(7-(difluoromethyl)-6-(1-methyl-1H-pyrazol-4-yl)-3,4-dihydroquinolin-1(2H)-yl)-N,1,7-trimethyl-1H-indole-3-carboxamide] | 377 | 16 |
| Cn1cc(-c2cc3c(cc2C(F)F)N(c2ccc4c(c2)n(C)c(=O)n4C)CCC3)cn1 [Example 18] | 1020 | 19 |
| CNC(=O)N1CCOc2ccc(N3CCCc4cc(-c5cnn(C)c5)c(C(F)F)cc43)cc2C1 [Example 113, 7-(7-(difluoromethyl)-6-(1-methyl-1H-pyrazol-4-yl)-3,4-dihydroquinolin-1(2H)-yl)-N-methyl-2,3-dihydrobenzo[f][1,4]oxazepine-4(5H)-carboxamide] | 157 | 14 |
| CC(C)c1cc(N2CCCc3cc(-c4cnn(C)c4)c(C(F)F)cc32)cc2c1n(C)c(=O)n2C [Example 96, 6-(7-(difluoromethyl)-6-(1-methyl-1H-pyrazol-4-yl)-3,4-dihydroquinolin-1(2H)-yl)-4-isopropyl-1,3-dimethyl-1H-benzo[d]imidazol-2(3H)-one] | 220 | 9 |
| COc1cc(N2CCCc3cc(-c4cnn(C)c4)c(C(F)F)cc32)cc2c1n(C)c(=O)n2C [Example 100, 6-(7-(difluoromethyl)-6-(1-methyl-1H-pyrazol-4-yl)-3,4-dihydroquinolin-1(2H)-yl)-4-methoxy-1,3-dimethyl-1H-benzo[d]imidazol-2(3H)-one] | 164 | 10 |
| CNC(=O)c1cn(C)c2cnc(N3CCCc4cc(-c5cnn(C)c5)c(C(F)F)cc43)cc12 [Example 59] | 205 | 6 |

Results, then the molecule that gave them:

| IC50 [1] [nM] | IC50 [2] [nM] | Compound |
| --- | --- | --- |
| 86 | 4 | Cn1cc(-c2cc3c(cc2C(F)F)N(c2cc(C4=CC[S+]([O-])CC4)c4c(c2)n(C)c(=O)n4C)CCC3)cn1 (stereo not shown) [Example 98, 6-(7-(difluoromethyl)-6-(1-methyl-1H-pyrazol-4-yl)-3,4-dihydroquinolin-1(2H)-yl)-1,3-dimethyl-4-(1-oxido-3,6-dihydro-2H-thiopyran-4-yl)-1H-benzo[d]imidazol-2(3H)-one] |
| 2290 | 59 | CNC(=O)c1cn(C)c2c(Cl)cc(N3CCCc4cc(-c5cnn(C)c5)c(C(F)F)cc43)cc12 [Example 54, 7-chloro-5-(7-(difluoromethyl)-6-(1-methyl-1H-pyrazol-4-yl)-3,4-dihydroquinolin-1(2H)-yl)-N,1-dimethyl-1H-indole-3-carboxamide] |
| 4040 | 10 | CNC(=O)c1cn(C)c2cc(F)c(N3CCCc4cc(-c5cnn(C)c5)c(C(F)F)cc43)cc12 [Example 56] |
| 177 | 9 | CNC(=O)c1ccc2c(c1)c(N1CCCc3cc(-c4cnn(C)c4)c(C(F)F)cc31)nn2C1CCOCC1 [Example 83, 3-(7-(difluoromethyl)-6-(1-methyl-1H-pyrazol-4-yl)-3,4-dihydroquinolin-1(2H)-yl)-N-methyl-1-(tetrahydro-2H-pyran-4-yl)-1H-indazole-5-carboxamide] |
| 2180 | 9 | CNC(=O)c1c[nH]c2ccc(N3CCCc4cc(-c5cnn(C)c5)c(C(F)F)cc43)cc12 [Example 52, 5-(7-(difluoromethyl)-6-(1-methyl-1H-pyrazol-4-yl)-3,4-dihydroquinolin-1(2H)-yl)-N-methyl-1H-indole-3-carboxamide] |
| 53 | 2 | CNC(=O)c1c[nH]c2c(C(C)C)nc(N3CCCc4cc(-c5cnn(C)c5)c(C(F)F)cc43)cc12 [Example 63] |
| 46 | 4 | CNC(=O)c1c[nH]c2c(C)cc(N3CCCc4cc(-c5cnn(C)c5)c(C(F)F)cc43)nc12 [Example 66] |
| 1380 | 14 | Cc1cc(N2CCCc3cc(-c4cnn(C)c4)c(C(F)F)cc32)cc2c1n(C)c(=O)n2C [Example 36, 6-(7-(difluoromethyl)-6-(1-methyl-1H-pyrazol-4-yl)-3,4-dihydroquinolin-1(2H)-yl)-1,3,4-trimethyl-1H-benzo[d]imidazol-2(3H)-one] |
| 413 | 13 | Cc1cc2c(cc1N1CCCc3cc(-c4cnn(C)c4)c(C(F)F)cc31)n(C)c(=O)n2C [Example 46] |
| 84 | 12 | CNC(=O)c1c[nH]c2c(C(C)C)cc(N3CCCc4cc(-c5cnn(C)c5)c(C(F)F)cc43)cc12 [Example 62, 5-(7-(difluoromethyl)-6-(1-methyl-1H-pyrazol-4-yl)-3,4-dihydroquinolin-1(2H)-yl)-7-isopropyl-N-methyl-1H-indole-3-carboxamide] |
